SMILES strings stand for the structures.

The target in one assay is T1, IRAK4 (His-TEV-IRAK4) (Homo sapiens, UniProt Q9NWZ3).
T1 construct: His (N); TEV cleavage site (N)
T1 sequence (Q9NWZ3 1-460): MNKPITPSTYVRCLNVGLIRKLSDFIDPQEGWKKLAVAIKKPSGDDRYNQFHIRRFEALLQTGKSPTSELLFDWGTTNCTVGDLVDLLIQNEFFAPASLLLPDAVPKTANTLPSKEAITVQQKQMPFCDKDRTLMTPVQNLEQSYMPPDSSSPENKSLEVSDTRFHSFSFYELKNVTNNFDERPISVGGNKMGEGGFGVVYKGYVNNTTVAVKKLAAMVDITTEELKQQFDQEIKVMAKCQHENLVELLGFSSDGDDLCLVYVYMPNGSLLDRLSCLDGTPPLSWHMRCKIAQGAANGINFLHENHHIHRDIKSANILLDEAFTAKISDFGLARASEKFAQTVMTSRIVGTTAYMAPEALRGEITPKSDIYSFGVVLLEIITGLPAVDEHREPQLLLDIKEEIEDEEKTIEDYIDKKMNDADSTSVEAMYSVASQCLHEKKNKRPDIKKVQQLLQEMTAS
In words: IRAK4 enzymatic assay. In kind it is biochemical. Particulars: human recombinant His-TEV-IRAK4, ATP 2 μM, STK1-biotin peptide 300 nM, 3 hours at 30° C., FlashPlate. How it is done: IRAK4 Enzymatic Assay IRAK4 is a human purified recombinant enzyme (His-TEV-[…] (194-712). IRAK4 hydrolyses ATP, autophosphorylates and phosphorylates a Serine/Threonine generic peptidic substrate (STK: 61 ST1BLC from CisBio International based in Bagnols/Cèze FR). Measurement of IRAK-4 inhibition was performed in streptavidin coated 384 well FlashPlate (PerkinElmer #SM[…]). His-TEV-IRAK4 (20 ng/well), ATP (2 μM, [^33P]ATP 0.25 μCi/well), STK1-biotin peptide (300 nM) and compounds in DMSO (range of concentrations from 20 μM to 1 nM) or controls (2% DMSO) were incubated for 3 hours at 30° C. in assay buffer: Hepes pH7.0 50 mM, Fatty acid-free BSA 0.1%, Dithiothreitol DTT 2 mM, MgCl2 10 mM, EGTA 0.5 mM, Tween-20 0.01%, MnCl2 5 mM. Kinase reaction was stopped by addition of EDTA. Supernatant was discarded, plates were washed three times with 150 mM NaCl and radioactivity was then measured in a Microbeta Trilux reader.

Assay [1] deals with T2, IRAK1 (His-TEV-IRAK1 (194-712)) (Homo sapiens, UniProt P51617).
T2 construct: His-TEV-IRAK1 (194-712); His (N); TEV cleavage site (N)
T2 sequence (P51617 194-712): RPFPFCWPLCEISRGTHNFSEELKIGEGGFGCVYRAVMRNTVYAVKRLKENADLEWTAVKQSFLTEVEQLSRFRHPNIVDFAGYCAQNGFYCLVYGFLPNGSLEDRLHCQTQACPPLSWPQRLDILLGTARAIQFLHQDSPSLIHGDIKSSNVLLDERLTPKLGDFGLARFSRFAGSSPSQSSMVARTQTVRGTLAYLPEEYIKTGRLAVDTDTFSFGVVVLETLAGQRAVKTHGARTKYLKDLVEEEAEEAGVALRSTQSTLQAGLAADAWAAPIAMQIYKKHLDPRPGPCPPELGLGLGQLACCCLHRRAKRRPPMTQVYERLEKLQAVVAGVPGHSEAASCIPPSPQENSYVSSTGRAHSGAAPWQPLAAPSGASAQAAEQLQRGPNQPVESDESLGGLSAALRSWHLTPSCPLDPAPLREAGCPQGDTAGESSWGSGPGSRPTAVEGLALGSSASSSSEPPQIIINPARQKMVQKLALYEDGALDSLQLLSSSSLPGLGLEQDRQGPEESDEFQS
Kind of assay: IRAK1 enzymatic assay. It counts as biochemical. Particulars: human recombinant His-TEV-IRAK1, ATP 1 μM, 3 hours at 30° C., FlashPlate. As for the experimental part:
IRAK1 Enzymatic Assay IRAK1 is a human purified recombinant enzyme (His-TEV-IRAK1 (194-712)). In this assay, IRAK-1 hydrolyses ATP and autophosphorylates. Measurement of IRAK-1 inhibition was performed in streptavidin coated 384 well FlashPlate (PerkinElmer #SM[…]). His-TEV-IRAK-1 (15 ng/well), ATP (1 μ[…]]ATP 0.25 μCi/well) and compounds in DMSO (range of concentrations from 20 μM to 1 nM) or controls (2% DMSO) were incubated for 3 hours at 30° C. in assay buffer: Hepes pH7.0 50 mM, Fatty acid-free BSA 0.1%, Dithiothreitol DTT 2 mM, MgCl2 10 mM, EGTA 0.5 mM, Triton-X-100 0.01%. Kinase reaction was stopped by addition of EDTA. Supernatant was discarded, plates were washed three times with 150 mM NaCl and radioactivity was then measured in a Microbeta Trilux reader.

Assay [2] relates to TLR7 induced IL-6 secretion in human PBMC's. Kind of assay: TLR7 induced IL-6 in human PBMC's. It counts as cell-based. Particulars: human PBMC, TLR7 specific ligand 2 uM overnight, IL-6 Alpha LISA; read-out: TLR7 induced IL-6 secretion in hPBMC's (IC50). As for the experimental part: TLR7 Induced IL-6 in Human PBMC's Human PBMC assay was used as one of the functional assays to monitor the activity of IRAK1 and IRAK4 small molecule inhibitors on TLR7 induced IL-6 secretion in human mononuclear cells (PBMC's). Human PBMCs were prepared from buffy coats (whole blood enriched with leukocytes and platelets) obtained from healthy volunteers used either fresh or frozen are plated in assay media (RPMI+2% P/S/L-glu+10% HI-FBS) and pre-treated with compounds in DMSO/media (range of concentrations from 25 uM to 0.4 nM) or controls (0.25% DMSO) for 30 minutes at 37° C. in assay media. Following pre-treatment with IRAK1 and IRAK4 inhibitors, PBMC's were stimulated with TLR7 specific ligand (2 uM) overnight (16-18 hrs) at 37° C. After incubation supernatant was transferred to 384 well PE AlphaPlate-384 (6005350) and IL-6 is quantified using Perkin Elmer IL-6 Alpha LISA kit (A[…]). Plates were read on an Envision® plate reader with Alpha Technology®.
For orientation: Alpha assays give light when donor and acceptor beads are brought close together.

As to `C=CS(=O)(=O)N1CCCC(n2cc(-c3cnc(-c4cccc(-c5cnn(C)c5)c4)nc3)cn2)C1` (stereo not drawn) [Compound 17, 5-[1-(1-Ethenesulfonyl-piperidin-3-yl)-1H-pyrazol-4-yl]-2-[3-(1-methyl-1H-pyrazol-4-yl)-phenyl]-pyrimidine], the IC50 (on IRAK4 (His-TEV-IRAK4); in assay [1]; in assay [2]) was less than 100 nM in each case.
For `C=CS(=O)(=O)N1CCC(n2cc(-c3cnc(-c4cccc(-c5cnn(C)c5)c4)nc3)cn2)CC1` [Compound 18, 5-[1-(1-Ethenesulfonyl-piperidin-4-yl)-1H-pyrazol-4-yl]-2-[3-(1-methyl-1H-pyrazol-4-yl)-phenyl]-pyrimidine], the IC50 (at IRAK4 (His-TEV-IRAK4); in assay [1]; in assay [2]) was less than 100 nM throughout.
As to `Cn1cc(-c2cccc(-c3ncc(-c4cnn(C5CCC[C@@H](S(C)(=N)=O)C5)c4)cn3)c2)cn1` (stereo partly drawn) [Compound 34, imino(methyl)(Cis-3-(4-(2-(3-(1-methyl-1H-pyrazol-4-yl)phenyl)pyrimidin-5-yl)-1H-pyrazol-1-yl)cyclohexyl)-I6-sulfanone], the values for the concentration for half-maximal inhibition (IC50) (on IRAK4 (His-TEV-IRAK4); in assay [1]; in assay [2]) were less than 100 nM, 100 to 1000 nM and 1000 to 20000 nM, respectively.
For the compound `C=CC(=O)N[C@H]1CCC[C@H](n2cc(-c3cnc(-c4cccc(-c5cnn(C)c5)c4)nc3)cn2)C1` [Compound 38, N-[(1S,3S)-3-(4-{2-[3-(1-Methyl-1H-pyrazol-4-yl)-phenyl]-pyrimidin-5-yl}-pyrazol-1-yl)-cyclohexyl]-acrylamide], the figures for the IC50 (on IRAK4 (His-TEV-IRAK4); in assay [1]; in assay [2]) were less than 100 nM, 100 to 1000 nM and 100 to 1000 nM, respectively.
In the case of `Cn1nccc1-c1cccc(-c2ncc(-c3cnn([C@H]4CC[C@]5(CCC(=O)N5C)CC4)c3)cn2)c1` [Compound 43, 1-Methyl-8-((S)-4-{2-[3-(2-methyl-2H-pyrazol-3-yl)-phenyl]-pyrimidin-5-yl}-pyrazol-1-yl)-1-aza-spiro[4.5]decan-2-one], the IC50 on IRAK4 (His-TEV-IRAK4) is less than 100 nM; in assay [1], 1000 to 20000 nM; in assay [2] it was 1000 to 20000 nM.
With `Cn1cc(-c2cccc(-c3ncc(-c4cnn(C5CCN(C#N)CC5)c4)cn3)c2)cn1` [Compound 45, 4-(4-{2-[3-(1-Methyl-1H-pyrazol-4-yl)-phenyl]-pyrimidin-5-yl}-pyrazol-1-yl)-piperidine-1-carbonitrile], the half-maximal inhibitory concentration (IC50) at IRAK4 (His-TEV-IRAK4) is less than 100 nM; in assay [1] it was 100 to 1000 nM; in assay [2], 100 to 1000 nM.
For the compound `Cn1cc(-c2cccc(-c3ncc(-c4cnn(C5CCN(C(=O)/C(C#N)=C\C6CC6)CC5)c4)cn3)c2)cn1` [Compound 46, (Z)-3-Cyclopropyl-2-[4-(4-{2-[3-(1-methyl-1H-pyrazol-4-yl)-phenyl]-pyrimidin-5-yl}-pyrazol-1-yl)-piperidine-1-carbonyl]-acrylonitrile], the half-inhibitory concentration (IC50) on IRAK4 (His-TEV-IRAK4) was less than 100 nM; in assay [1], less than 100 nM; in assay [2] it was 100 to 1000 nM.
Take `CC#CC(=O)N1CCC(n2cc(-c3cnc(-c4cccc(-c5cnn(C)c5)c4)nc3)cn2)CC1` [Compound 48, 1-[4-(4-{2-[3-(1-Methyl-1H-pyrazol-4-yl)-phenyl]-pyrimidin-5-yl}-pyrazol-1-yl)-piperidin-1-yl]-but-2-yn-1-one]: the values for the concentration for half-maximal inhibition (IC50) (at IRAK4 (His-TEV-IRAK4); in assay [1]; in assay [2]) were less than 100 nM, less than 100 nM and 1000 to 20000 nM, respectively.

By IC50 is commonly meant the concentration that gives 50% inhibition.

Source of the values: patent US10314841B2, “Substituted pyrazoles as IRAK inhibitors” (Merck Patent GmbH, priority 2014, dated 2019).
